Here are results for 21 compounds from patent US10179791B2, “Spiro-cyclic amine derivatives as S1P modulators” (AbbVie B.V., priority 2010, dated 2019).

Assay type in all cases: cell-based
One test deals with human S1P5 receptor (Homo sapiens (Human), UniProt Q9H228). The test is described as follows: In vitro functional activity (agonism) on human S1P5 receptors, CHO-human-S1P5-Aequorin assay. As to conditions: aequorin luminescence, CHO cells, 3 independent experiments. An excerpt: In Vitro Functional Activity (Agonism) on Human S1P5 Receptors
(§1) The CHO-human-S1P5-Aeqorin assay was bought from Euroscreen, Brussels (Euroscreen, Technical dossier, Human Lysophospholid S1P5 (Edg8) receptor, DNA clone and CHO AequoScreen™ recombinant cell-line, catalog no: ES-593-A, September 2006). Human-S1P5-Aequorin cells express mitochondrial targeted apo-Aequorin. Cells have to be loaded with coelanterazine, in order to reconstitute active Aequorin. After binding of agonists to the human S1P5 receptor the intracellular calcium concentration increases and binding of calcium to the apo-Aequorin/coelenterazine complex leads to an oxidation reaction of coelenterazine, which results in the production of apo-Aequorin, coelenteramide, CO2 and light ([…]max 469 nm). This luminescent response is dependent on the agonist concentration. Luminescence is measured using the MicroBeta Jet (Perkin Elmer). Agonistic effects of compounds are expressed as pEC50. Compounds were tested at a 10 points half log concentration range, and 3 independent experiments were performed in single point's measurements.

The target of another test is human S1P3 receptor (Homo sapiens (Human), UniProt Q99500). The test is described as follows: In vitro functional activity (agonism) on human S1P3 receptors, CHO-human-S1P3-Aequorin assay. The conditions noted are these: aequorin luminescence, CHO K1 cells, 3 independent experiments, read-out: S1P3 pEC50 (converted).
Text: In Vitro Functional Activity (Agonism) on Human S1P3 Receptors
The CHO-human-S1P3-Aeqorin assay (CHO/Gα16/AEQ/h-S1P3) was established at Solvay Pharmaceuticals. The plasmid DNA coding for the S1P3 receptor (accession number in GenBank NM_005226 was purchased from UMR cDNA resource Centre (Rolla, Mo.). The pcDNA3.1/hS1P3 construct carrying the mitochondrially targeted apo-Aeqorin and Gal6 protein was transfected in CHO K1 cell-line.
as §1, with “Human-S1P3-Aequorin” for “The CHO-human-S1P5-Aeqorin assay was bought from Euroscreen, Brussels (Euroscreen, Technical dossier, Human Lysophospholid S1P5 (Edg8) receptor, DNA clone and CHO AequoScreen™ recombinant cell-line, catalog no: ES-593-A, September 2006). Human-S1P5-Aequorin”, “S1P3” for “S1P5”

A further test deals with human S1P1 (Homo sapiens (Human), UniProt P21453). The test is described as follows: In vitro functional activity (agonism) on human S1P1 receptors (method A), CHO-K1-human-S1P1-Aequorin assay.
Text: In Vitro Functional Activity (Agonism) on Human S1P1 Receptors (Method A)
as §1, with “Human-S1P1-Aequorin” for “The CHO-human-S1P5-Aeqorin assay was bought from Euroscreen, Brussels (Euroscreen, Technical dossier, Human Lysophospholid S1P5 (Edg8) receptor, DNA clone and CHO AequoScreen™ recombinant cell-line, catalog no: ES-593-A, September 2006). Human-S1P5-Aequorin”, “S1P1” for “S1P5”, “2” for “3”

Setting [1] is: agonism, determined using method A (aequorin luminescence, CHO-K1 cells), 2 independent experiments, read-out: S1P1^A pEC50 (converted).

Structures can show the parent of a compound that is named as a salt. Where two headings read alike, the source gives them in different places.

Chain of human S1P1 (P21453 whole entry): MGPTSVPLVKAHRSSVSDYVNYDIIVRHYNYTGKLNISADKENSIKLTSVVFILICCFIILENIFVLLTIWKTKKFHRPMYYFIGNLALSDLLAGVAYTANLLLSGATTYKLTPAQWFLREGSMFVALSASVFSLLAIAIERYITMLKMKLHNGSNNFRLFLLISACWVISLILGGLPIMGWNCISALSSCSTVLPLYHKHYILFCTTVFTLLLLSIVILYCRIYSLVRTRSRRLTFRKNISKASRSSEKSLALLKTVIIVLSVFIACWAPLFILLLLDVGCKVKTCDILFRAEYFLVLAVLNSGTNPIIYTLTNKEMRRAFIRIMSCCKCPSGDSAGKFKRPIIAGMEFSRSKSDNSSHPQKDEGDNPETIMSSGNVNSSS
Chain of human S1P3 receptor (Q99500 whole entry): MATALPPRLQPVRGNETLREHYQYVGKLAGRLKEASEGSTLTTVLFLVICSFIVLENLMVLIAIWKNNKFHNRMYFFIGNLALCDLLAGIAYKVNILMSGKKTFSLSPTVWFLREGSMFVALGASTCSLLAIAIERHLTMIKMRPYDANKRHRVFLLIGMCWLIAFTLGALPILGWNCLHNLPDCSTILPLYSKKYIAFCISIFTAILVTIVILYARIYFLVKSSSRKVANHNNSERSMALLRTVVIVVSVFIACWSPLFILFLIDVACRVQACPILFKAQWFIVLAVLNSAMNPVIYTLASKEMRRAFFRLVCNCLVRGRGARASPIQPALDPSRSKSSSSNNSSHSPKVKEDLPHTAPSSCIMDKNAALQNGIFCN
Chain of human S1P5 receptor (Q9H228 whole entry): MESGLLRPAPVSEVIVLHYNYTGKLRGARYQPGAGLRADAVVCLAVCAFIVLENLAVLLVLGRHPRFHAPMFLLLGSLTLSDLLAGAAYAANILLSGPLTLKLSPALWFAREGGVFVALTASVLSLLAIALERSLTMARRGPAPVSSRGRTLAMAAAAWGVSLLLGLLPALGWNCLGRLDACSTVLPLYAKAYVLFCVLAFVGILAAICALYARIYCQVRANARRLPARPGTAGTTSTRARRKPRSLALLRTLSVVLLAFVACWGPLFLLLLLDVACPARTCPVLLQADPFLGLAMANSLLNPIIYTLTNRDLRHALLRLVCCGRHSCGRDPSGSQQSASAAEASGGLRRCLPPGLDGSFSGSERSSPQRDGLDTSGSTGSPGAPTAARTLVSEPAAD

On to `O=C(O)CCN1CCC2(CC1)COc1cc(OCc3c(Cl)cccc3Cl)ccc12` [Compound 29, 3-{6-[(2,6-Dichlorophenyl)methoxy]-2H-spiro[1-benzofuran-3,4′-piperidine]-1′-yl}propanoic acid hydrochloride], for which the “S1P5 pEC50” value at human S1P5 receptor was 7. Further, the EC50 at human S1P3 receptor was more than 31.6 µM; at human S1P1, more than 10 µM.
Consider `O=C(O)CCN1CCC2(CC1)COc1cc(OCc3c(Cl)cccc3C3CC3)ccc12` [Compound 75, 3-{6-[(2-Chloro-6-cyclopropyl)phenyl)methoxy]-2H-spiro[1-benzofuran-3,4′-piperidine]-1′-yl}propanoic acid hydrochloride], for which the “S1P5 pEC50” value at human S1P5 receptor turned out to be 7.7. The figures for the EC50 on human S1P3 receptor and at human S1P1 (setting [1]) were more than 10 µM and 2.51 µM, respectively.
With `O=C(O)CCN1CCC2(CC1)COc1cc(OCc3c(Cl)cccc3OC(F)(F)F)ccc12` [Compound 77, 3-(6-{[2-Chloro-6-(trifluoromethoxy)phenyl]methoxy}-2H-spiro[1-benzofuran-3,4′-piperidine]-1′-yl)propanoic acid hydrochloride], at human S1P5 receptor, the “S1P5 pEC50” value is reported as 7.6. The EC50 on human S1P3 receptor is more than 10 µM; at human S1P1 (setting [1]) it was 6.31 µM.
On to `CC(CN1CCC2(CC1)COc1cc(OCc3c(Cl)cc(Cl)cc3Cl)ccc12)C(=O)O` (centres unmarked) [Compound 102, 2-Methyl-3-{6-[(2,4,6-trichlorophenyl)methoxy]-2H-spiro[1-benzofuran-3,4′-piperidine]-1′-yl}propanoic acid hydrochloride], for which, on human S1P5 receptor, the “S1P5 pEC50” value is 7.8. Also, at human S1P1 (setting [1]), the EC50 was 0.631 µM.
Consider `O=C(O)CN1CCC2(CC1)COc1cc(OCc3c(Cl)cc(Cl)cc3Cl)ccc12` [Compound 110, 2-{6-[(2,4,6-Trichlorophenyl)methoxy]-2H-spiro[1-benzofuran-3,4′-piperidine]-1′-yl}acetic acid hydrochloride], for which the “S1P5 pEC50” value on human S1P5 receptor came to 7.8. The EC50 was 2 µM at human S1P3 receptor and more than 10 µM on human S1P1 (setting [1]).
Taken in the same sequence, the figures for `CCc1cccc(Cl)c1COc1ccc2c(c1)OCC21CCN(CC(=O)O)CC1` [Compound 111, 2-{6-[(2-Chloro-6-ethylphenyl)methoxy]-2H-spiro[1-benzofuran-3,4′-piperidine]-1′-yl}acetic acid hydrochloride] were 7.6, 2 µM and more than 10 µM.
As for `O=C(O)CCCN1CCC2(CC1)COc1cc(OCc3c(Cl)cccc3C3CC3)ccc12` [Compound 121, 4-{6-[(2-Chloro-6-cyclopropylphenyl)methoxy]-2H-spiro[1-benzofuran-3,4′-piperidine]-1′-yl}butanoic acid hydrochloride], the “S1P5 pEC50” value at human S1P5 receptor is on record as 7.1. In addition, the EC50 is more than 10 µM at human S1P3 receptor and 5.01 µM on human S1P1 (setting [1]).
On to `CC(C)c1cccc(Cl)c1COc1ccc2c(c1)OCC21CCN(CCCC(=O)O)CC1` [Compound 127, 4-(6-{[2-Chloro-6-(propan-2-yl)phenyl]methoxy}-2H-spiro[1-benzofuran-3,4′-piperidine]-1′-yl)butanoic acid hydrochloride], for which the “S1P5 pEC50” value at human S1P5 receptor is listed as 6.9. Besides, the values for the EC50 at human S1P3 receptor and at human S1P1 (setting [1]) were 2.51 µM and 7.94 µM, respectively.
Taken in the same sequence, the figures for `O=C(O)CCN1CCC2(CC1)COc1c2ccc(OCc2c(Cl)cc(Cl)cc2Cl)c1F` [Compound 132, 3-{7-Fluoro-6-[(2,4,6-trichlorophenyl)methoxy]-2H-spiro[1-benzofuran-3,4′-piperidine]-1′-yl}propanoic acid hydrochloride] were 8.3, 2 µM and more than 31.6 µM.
Taken in the same sequence, the figures for `CCc1cccc(Cl)c1COc1ccc2c(c1F)OCC21CCN(CCC(=O)O)CC1` [Compound 136, 3-{6-[(2-Chloro-6-ethylphenyl)methoxy]-7-fluoro-2H-spiro[1-benzofuran-3,4′-piperidine]-1′-yl}propanoic acid hydrochloride] were 8, more than 10 µM and 1.26 µM.
With `CCc1cccc(Cl)c1CSc1ccc2c(c1)OCC21CCN(CCC(=O)O)CC1` [Compound 140, 3-(6-{[(2-Chloro-6-ethylphenyl)methyl]sulfanyl}-2H-spiro[1-benzofuran-3,4′-piperidine]-1′-yl}propanoic acid hydrochloride], on human S1P5 receptor, the “S1P5 pEC50” value came to 8.5. Also, the EC50 is more than 10 µM on human S1P3 receptor and 0.158 µM on human S1P1.
Take `O=C(O)CCN1CCC2(CC1)COc1cc(SCc3c(Cl)cccc3C3CC3)ccc12` [Compound 141, 3-(6-{[(2-Chloro-6-cyclopropylphenyl)methyl]sulfanyl}-2H-spiro[1-benzofuran-3,4′-piperidine]-1′-yl}propanoic acid hydrochloride]: the “S1P5 pEC50” value on human S1P5 receptor is recorded as 8.2. Also, the EC50 was more than 10 µM at human S1P3 receptor and 0.316 µM at human S1P1 (setting [1]).
For the compound `O=C(O)CCN1CCC2(CC1)COc1cc(SCc3c(Cl)cc(Cl)cc3Cl)ccc12` [Compound 143, 3-(6-{[(2,4,6-Trichlorophenyl)methyl]sulfanyl}-2H-spiro[1-benzofuran-3,4′-piperidine]-1′-yl}propanoic acid hydrochloride], at human S1P5 receptor, the “S1P5 pEC50” value was determined as 7.5. Also, the EC50 on human S1P1 (setting [1]) is more than 10 µM.
On to `CC(CN1CCC2(CC1)COc1cc(SCc3c(Cl)cccc3Cl)ccc12)C(=O)O` (centres unmarked) [Compound 153, 3-(6-{[(2,6-Dichlorophenyl)methyl]sulfanyl}-2H-spiro[1-benzofuran-3,4′-piperidine]-1′-yl}-2-methylpropanoic acid hydrochloride], for which, on human S1P5 receptor, the “S1P5 pEC50” value worked out at 7.9. In addition, the EC50 on human S1P1 (setting [1]) is 1 µM.
Turning to `O=C(O)CN1CCC2(CC1)COc1cc(C3CC3c3c(Cl)cccc3Cl)ccc12` (centres unmarked) [Compound 176, 2-{6-[2-(2,6-Dichlorophenyl)cyclopropyl]-2H-spiro[1-benzo-furan-3,4′-piperidine]-1′-yl}acetic acid hydrochloride], the “S1P5 pEC50” value on human S1P5 receptor is 7.6. Besides, the EC50 was more than 10 µM on human S1P3 receptor and more than 31.6 µM on human S1P1 (setting [1]).
For `O=C(O)CCN1CCC2(CC1)OCc1cc(OCc3c(Cl)cccc3Cl)ccc12` [Compound 203, 3-{5-[(2,6-Dichlorophenyl)methoxy]-3-H-spiro[2-benzofuran-1,4′-piperidine]-1′-yl}propanoic acid hydrochloride], in that order: 6.7, more than 10 µM and more than 10 µM.
On to `CC(C)c1cccc(F)c1COc1ccc2c(c1)OCC21CCN(CCC(=O)O)CC1` [Compound 252, 3-(6-{[2-fluoro-6-(propan-2-yl)phenyl]methoxy}-2H-spiro[1-benzofuran-3,4′-piperidine]-1′-yl)propanoic acid], for which the EC50 on human S1P3 receptor was 5.01 µM.
On to `O=C(O)CCN1CCC2(CC1)COc1cc(OCc3c(F)cccc3C3CC3)ccc12` [Compound 253, 3-{6-[(2-cyclopropyl-6-fluorophenyl)methoxy]-2H-spiro[1-benzofuran-3,4′-piperidine]-1′-yl}propanoic acid], for which, at human S1P5 receptor, the “S1P5 pEC50” value was found to be 7.7. For the same compound, the results for the EC50 on human S1P3 receptor and on human S1P1 (setting [1]) were more than 10 µM and 2.51 µM, respectively.
For `CCc1cccc(CC)c1COc1ccc2c(c1)OCC21CCN(CCC(=O)O)CC1` [Compound 258, 3-{6-[(2,6-diethylphenyl)methoxy]-2H-spiro[1-benzo-furan-3,4′-piperidine]-1′-yl}propanoic acid], on human S1P5 receptor, the “S1P5 pEC50” value turned out to be 7.8. Besides, the EC50 is more than 10 µM on human S1P3 receptor and 2.51 µM at human S1P1.
Consider `CCc1cccc(Cl)c1CSc1ccc2c(c1F)OCC21CCN(CCC(=O)O)CC1` [Compound 296, hydrochloride], for which the “S1P5 pEC50” value at human S1P5 receptor was found to be 8.7. Moreover, the EC50 on human S1P3 receptor is more than 10 µM.
On to `O=C(O)CCN1CCCC2(COc3cc(OCc4c(Cl)cccc4C(F)(F)F)ccc32)C1` (centres unmarked) [Compound 326, 3-(6-{[2-Chloro-6-(trifluoromethyl)phenyl]methoxy}-2H-spiro[1-benzofuran-3,3′-piperidine]-1′-yl)propanoic acid], for which the values for the EC50 on human S1P3 receptor and on human S1P1 (setting [1]) were more than 10 µM and more than 31.6 µM, respectively.
